These results are taken from patent publication US11891625B2, “Methods and compositions relating to hematopoietic stem cell expansion, enrichment, and maintenance” (CHILDREN'S MEDICAL CENTER CORPORATION, priority 2015, dated 2024).

The test system of test [1] is murine HSCs (Lineage- Sca1+ ckit+ CD34-Flk2- CD150+ Fgd5 ZsGr+). Put plainly: Ex vivo culture of 20 murine HSCs for 7 or 14 days (imaging, FACS of phenotypic HSCs). The conditions noted are these: 7 or 14 days ex vivo, versus DMSO. The format is cell-based. On the procedure:
Images taken at 4× magnification.
FIGS. 9A-9B show the expansion of phenotypic murine HSCs for 14 days ex vivo. 20 murine HSCs (Lineage− Sca1+ ckit+ CD34−Flk2−CD150+Fgd5⋅ZsGr+) were cultured in the presence of DMSO, LSD1 inhibitor IV (LS), Tgfbeta inhibitor RepSox (RS), and the combination of both (C2) for 14 days. This method supports maintenance and expansion of ZsGr+ HSCs. […] FIG. 9B depicts the number of Lineage− Sca1+ ckit+ CD34−Flk2−CD150+Fgd5⋅ZsGr+ HSCs in each condition after 14 days of ex vivo culture.
An optimal combination of compounds that can be used to expand, enrich, and maintain the hematopoietic stem cell functional potential of hematopoietic stem cells includes a histone demethylase inhibitor and an inhibitor of the TGFβ receptor Alk5. […] Images taken at 4× magnification. […] FIGS. 9A-9B show the expansion of phenotypic HSCs for 14 days ex vivo. 20 murine HSCs (LSK34-Flk2-150+ZsGr+) were cultured in the presence of DMSO, LSD1 inhibitor IV (LS), Tgfbeta inhibitor RepSox (RS), and the combination of both (C2) for 14 days. This method supports maintenance and expansion of ZsGr+ HSCs. […] FIG. 9B: Number of ZsGr+ HSCs in each condition after 14 days of ex vivo culture. […] A) Bright-field and ZsGr images of 20 HSCs cultured for 4.5 days ex vivo in the presence of LSD1 inhibitor IV (LS), Tgfbeta inhibitor RepSox (RS), and the combination of both (C2). […]

The test system of another test is ZsGr+ murine HSCs. Briefly: 4.5 day ex vivo culture of 20 Fgd5 ZsGr+ HSCs (frequency and number of ZsGr+ cells). The format is cell-based. To be noted: 4.5 days ex vivo culture. The text has this:
FIG. 10A depicts bright-field and ZsGr images of 20 Fgd5⋅ZsGr+ HSCs cultured for 4.5 days ex vivo in the presence of LSD1 inhibitor IV (LS), Tgfbeta inhibitor RepSox (RS), and the combination of both (C2). […] FIG. 10C depicts the number of ZsGr+ and ZsGr− cells after 4.5 day cultures.
An optimal combination of compounds that can be used to expand, enrich, and maintain the hematopoietic stem cell functional potential of hematopoietic stem cells includes a histone demethylase inhibitor and an inhibitor of the TGFβ receptor Alk5. […] Images taken at 4× magnification. […] FIGS. 9A-9B show the expansion of phenotypic HSCs for 14 days ex vivo. 20 murine HSCs (LSK34-Flk2-150+ZsGr+) were cultured in the presence of DMSO, LSD1 inhibitor IV (LS), Tgfbeta inhibitor RepSox (RS), and the combination of both (C2) for 14 days. This method supports maintenance and expansion of ZsGr+ HSCs. […] FIG. 9B: Number of ZsGr+ HSCs in each condition after 14 days of ex vivo culture. […] A) Bright-field and ZsGr images of 20 HSCs cultured for 4.5 days ex vivo in the presence of LSD1 inhibitor IV (LS), Tgfbeta inhibitor RepSox (RS), and the combination of both (C2). FIG. 10B: Frequency of ZsGr+ cells remaining following 4.5 days of ex vivo culture. FIG. 10C: Number of ZsGr+ (Green) and ZsGr− (Black) cells within 4.5 day cultures (See also FIGS. 11A-13F and 28A-32B).

A further test relates to human cord blood HSCs. Briefly: In vitro colony forming assay of human cord blood HSCs after 14 days of ex vivo culture. The format is cell-based. To be noted: 14 day cord blood HSC cultures. On the procedure: FIG. 30A depicts colony counts and composition adjusted to represent the entire well following 14 days of ex vivo culture (Note: only a fraction of the well was added to methocult for colony formation). FIG. 30B depicts the frequency of myeloid colony types from 14 day cord blood HSC cultures.

Test [2] concerns murine HSCs (lineage-, ckit+, Sca1+, CD150+, CD48-, Fgd5ZsGr+). Briefly: Culture of 40 murine HSCs for 12 days with compound cocktail plus RG108 and/or UNC0638, flow cytometry. To be noted: cytokines plus cocktail incl. trichostatin A, plus either or both RG108 and UNC0638. The format is cell-based. On the procedure:
40 murine HSCs (lineage−, ckit+, Sca1+, CD150+, CD48−, Fgd5ZsGr+) were cultured for 12 days in the presence of cytokines (SCF, TPO, and IL12) and a cocktail of compounds (Lithium chloride, nicotinamide, N-acetylcysteine, ascorbic acid, A83-01, and SB203580, trichostatin A) plus either or both DNA methyltransferase inhibitor (RG108) and G9a inhibitor (UNC0638). Flow cytometry plots of Fgd5+Lineage− cells from the indicated culture conditions are shown.
A series of experiments was conducted in order to determine the relative contribution of compounds that modulate particular pathways to the expansion of hematopoietic stem cells. FIGS. 21A-21B show the contribution of each compound/pathway in ability to maintain and expand phenotypic HSCs during ex vivo culture. […] 200 cord blood HSCs were cultured for 12 days in serum free media supplemented with cytokines (SCF, TPO, FLT3L, IL3) in the presence of the indicated chemical combinations (Tgfbeta inhibitor (A, A83-01), HDAC inhibitor (TSA, Trichostatin A), and LSD1 inhibitor (TC, Tranylcypromine)) or additionally supplemented with p38 inhibitor (p38i, SB203580) and analyzed by flow cytometry. FIG. 35A: Immunophenotype of the cells post-culturing, and FIG. 35B: quantification of immunophenotypic HSCs (Lineage− CD34+ CD45RA−CD38− CD90+CD49F+) cultured in the indicated conditions.

Test [3] concerns human mobilized peripheral blood CD34+ cells. Put plainly: Culture of 3000 CD34+ enriched mobilized peripheral blood cells for 7 days with chemicals or combinations, flow cytometry. In kind it is cell-based. The conditions noted are these: combinations with A83-01, Tranylcypromine, SB203580. For orientation: Flow cytometry measures light scatter and fluorescence of single cells or particles in a stream.
Procedure: 3000 CD34+ enriched mobilized peripheral blood cells were cultured for 7 days in serum free media supplemented with cytokines (SCF, TPO, FLT3L, IL3) in the presence of the indicated chemical combinations (Tgfbeta inhibitor (A, A83-01), pan-HDAC inhibitor (TSA, Trichostatin A), LSD1 inhibitor (TC, Tranylcypromine), p38 inhibitor (p38i, SB203580), HDAC1/2 inhibitor (Rom, Romidepsin)) and analyzed by flow cytometry. FIG. 41A depicts the immunophenotype of the cells, FIG. 41B depicts the percentage of indicated populations, and FIG. 41C depicts quantification of immunophenotypic HSCs (Lineage− CD34+ CD45RA−CD38− CD90+CD49F+) 7 days post-culturing in the indicated conditions.
3000 CD34+ enriched mobilized peripheral blood cells were cultured for 7 days in serum free media supplemented with cytokines (SCF, TPO, FLT3L, IL3) in the presence of the indicated chemical combinations (Tgfbeta inhibitor (A, A83-01), pan-HDAC inhibitor (TSA, Trichostatin A), LSD1 inhibitor (TC, Tranylcypromine), p38 inhibitor (p38i, SB203580), HDAC1/2 inhibitor (Rom, Romidepsin)) and analyzed by flow cytometry. FIG. 41A: immunophenotype of the cells, FIG. 41B: percentage of indicated populations, and FIG. 41C: quantification of immunophenotypic HSCs (Lineage− CD34+ CD45RA− CD38− CD90+CD49F+) 7 days post-culturing in the indicated conditions.

Another test has as its system p38 MAPK. The conditions noted are these: as described in U.S. Pat. No. 6,602,896; cited from earlier work.
Test [4] has as its system human CD34+ peripheral blood and cord blood hematopoietic stem cells. The conditions noted are these: as described in the cited literature; cited from earlier work.
The subject of test [5] is murine HSCs (lineage-, ckit+, Sca1+, CD150+, CD48-, Fgd5ZsGr+). Put plainly: Culture of 100 murine HSCs with compound cocktail plus VPA or TSA, day 7 flow cytometry. In kind it is cell-based. To be noted: cytokines plus cocktail (Lithium chloride, nicotinamide, N-acetylcysteine, ascorbic acid, A83-01, SB203580). On the procedure:
100 murine HSCs (lineage−, ckit+, Sca1+, CD150+, CD48−, Fgd5ZsGr+) were cultured in the presence of cytokines only (SCF, TPO, and IL12) in the absence of compounds (Standard), or additionally supplemented with a cocktail of compounds (Lithium chloride, nicotinamide, N-acetylcysteine, ascorbic acid, A83-01, and SB203580) plus either valproic acid (VPA) or trichostatin A (TSA), which are structurally distinct HDAC inhibitors. FIG. 22A depicts day 7 flow cytometric analysis and FIG. 22B depicts the proportion of Fgd5−ZsGreen+ Sca1+ cells for each replicate.
In addition to inhibitors of histone demethylation and TGFβ signaling, histone deacetylase inhibitors also promote the expansion, enrichment, and maintenance of hematopoietic stem cells ex vivo. […] 3000 CD34+ enriched mobilized peripheral blood cells were cultured for 7 days in serum free media supplemented with cytokines (SCF, TPO, FLT3L, IL3) in the presence of the indicated chemical combinations (Tgfbeta inhibitor (A, A83-01), pan-HDAC inhibitor (TSA, Trichostatin A), LSD1 inhibitor (TC, Tranylcypromine), p38 inhibitor (p38i, SB203580), HDAC1/2 inhibitor (Rom, Romidepsin)) and analyzed by flow cytometry. […]

Regarding `CN1CCN(C(=O)CN[C@@H]2C[C@H]2c2ccc(OCc3ccccc3)cc2)CC1` [LS], the “appearance of cultures (images at 4x magnification)” value in test [1] is “more homogenous and less differentiated”. Besides, in the test with ZsGr+ murine HSCs, the “maintenance and expansion of ZsGr+ HSCs” value was “supports maintenance and expansion of ZsGr+ murine HSCs”. Besides, the “frequency of GEMM colonies” value with human cord blood HSCs is on record as “elevated frequency of most primitive GEMM colonies”.
In the case of `O=C(O)[C@H](Cc1c[nH]c2ccccc12)N1C(=O)c2ccccc2C1=O` [RG108, N-Phthalyl-L-tryptophan], the “heterogeneity of Fgd5 ZsGr+ cells with respect to CD48 and Sca1 expression” value in test [2] was “reduces heterogeneity”.
Take `Cc1cccc(-c2n[nH]cc2-c2ccc3ncccc3n2)n1` [RS]: the “maintenance and expansion of ZsGr+ HSCs” value in the test on ZsGr+ murine HSCs is “supports maintenance and expansion of ZsGr+ murine HSCs”. Also, in the test on human cord blood HSCs, the “frequency of GEMM colonies” value is on record as “elevated frequency of most primitive GEMM colonies”.
As for `C/C=C1\NC(=O)[C@H]2CSSCC/C=C/[C@H](CC(=O)N[C@H](C(C)C)C(=O)N2)OC(=O)[C@H](C(C)C)NC1=O` [Romidepsin], in test [3], the “replacement of pan HDAC inhibitor in chemical combination for maintenance/expansion of human HSCs” value is “can replace the pan HDAC inhibitor Trichostatin A for efficient ex vivo maintenance/expansion of human HSCs”.
As to `Oc1ccc(-c2nc(-c3ccc(F)cc3)c(-c3ccncc3)[nH]2)cc1` [SB202190, 4(4-Fluorophenyl)-2-(4-hydroxyphenyl)-5-(4-pyridyl) 1H-imidazole], the “selectivity among p38 MAPK isoforms” value in the test on p38 MAPK is “selectively antagonize p38 MAPK α- and β-isoforms without disrupting the enzymatic activity of the γ- or δ-isoforms”.
`CC(C)n1cnc2c(NCCc3ccc(O)cc3)nc(-c3csc4ccccc34)nc21` [SR1]: in test [4], the “expansion and self-renewal of human CD34+ hematopoietic stem cells” value was “promotes expansion and self-renewal of human CD34+ peripheral blood and cord blood hematopoietic stem cells”.
As for `COc1cc2c(NC3CCN(C(C)C)CC3)nc(C3CCCCC3)nc2cc1OCCCN1CCCC1` [UNC0638], the “heterogeneity of Fgd5 ZsGr+ cells with respect to CD48 and Sca1 expression” value in test [2] is “reduces heterogeneity”.
Take `CC(/C=C/C(=O)NO)=C\[C@@H](C)C(=O)c1ccc(N(C)C)cc1` [trichostatin A]: the “maintenance of immunophenotypic HSCs by structurally distinct HDAC inhibitors” value in test [5] was “function equivalently to maintain immunophenotypic HSCs”.
On to `CCCC(CCC)C(=O)O` [valproic acid], for which the “maintenance of immunophenotypic HSCs by structurally distinct HDAC inhibitors” value in test [5] was “function equivalently to maintain immunophenotypic HSCs”.
